Test results published in paper PMC4106271 (Journal of Medicinal Chemistry, 2014).

Experiments:
α1β1γ2S GABAA receptors = target: T1, α1β1γ2S GABAA receptors (Homo sapiens, UniProt P14867+P18505); test: Two-microelectrode voltage clamp, IGABA modulation, α1β1γ2S; format: cell-based; settings: for nH: Hill coefficient
T1 construct: expressed in transfected cells; host or cells: Xenopus laevis oocytes injected with cRNA (pCMV cDNA templates)
Procedure: (§1) Preparation of stage V–VI oocytes from X. laevis and synthesis of capped runoff poly(A) cRNA transcripts from linearized cDNA templates (pCMV vector) was performed as previously described.[49] […] Follicle membranes from isolated oocytes were enzymatically digested with 2 mg/mL collagenase (type 1A, Sigma–Aldrich, Vienna, Austria).
(§2) Selected oocytes were injected with 10–50 nL of DEPC-treated water (diethyl pyrocarbonate, Sigma, Vienna, Austria) containing the different GABAA cRNAs at a concentration of approximately 300–3000 pg·nL^–1·subunit^–1.
(§3) To ensure expression of the γ2S subunit in the case of α1/2/3/5β2/3γ2S receptors, cRNAs were mixed in a ratio of 1:1:10. […] The amount of cRNAs was determined by means of a NanoDrop ND-1000 (Kisker-Biotech, Steinfurt, Germany).
(§4) Oocytes were stored at +18 °C in modified ND96 solution (90 mM NaCl, 1 mM CaCl2, 1 mM KCl, 1 mM MgCl2·6H2O, and 5 mM HEPES [4-(2-hydroxyethyl)-1-piperazineethanesulfonic acid], pH 7.4, all from Sigma–Aldrich, Vienna, Austria).
(§5) Chloride currents through GABAA receptors (IGABA) were measured at room temperature (+21 ± 1 °C) by means of a two-microelectrode voltage clamp technique making use of a Turbo TEC-05X amplifier (npi electronic, Tamm, Germany). IGABA were elicited at a holding potential of –70 mV. Data acquisition was carried out by means of an Axon Digidata 1322A interface using pCLAMP v.10 (Molecular Devices, Sunnyvale, CA). The modified ND96 solution was used as bath solution.
(§6) GABA and the studied derivatives were applied by means of the ScreeningTool (npi electronic, Tamm, Germany) fast perfusion system as described previously.[50] To elicit IGABA, the chamber was perfused with 120 μL of GABA- or compound-containing solution at a volume rate of 300 μL/s.[34] Care was taken to account for possible slow recovery from increasing levels of desensitization in the presence of high drug concentrations. The duration of washout periods was therefore extended from 1.5 min (<10 μM compounds) to 30 min (≥10 μM compounds). Oocytes with maximal current amplitudes >3 μA were discarded to exclude voltage clamp errors.
(§7) Stimulation of chloride currents by modulators of the GABAA receptor was measured at a GABA concentration eliciting between 3% and 7% of the maximal current amplitude (EC3–7). The GABA EC3–7 was determined for each oocyte individually. Enhancement of the chloride current was defined as (IGABA+compd/IGABA) – 1, where IGABA+compd is the current response in the presence of a given compound and IGABA is the control GABA current. IGABA-max reflects the maximal IGABA enhancement. […] Statistical significance was calculated by paired Student t-test with a confidence interval of <0.05.

α2β2γ2S GABAA receptors = target: T2, α2β2γ2S GABAA receptors (Homo sapiens, UniProt P47869+P47870); test: Two-microelectrode voltage clamp, IGABA modulation, α2β2γ2S; format: cell-based; settings: for nH: Hill coefficient
T2 construct: expressed in transfected cells; host or cells: Xenopus laevis oocytes injected with cRNA (pCMV cDNA templates)
Procedure: as §1, §2, §3, §4, §5, §6, §7

α3β2γ2S GABAA receptors = target: T3, α3β2γ2S GABAA receptors (Homo sapiens, UniProt P34903+P47870); test: Two-microelectrode voltage clamp, IGABA modulation, α3β2γ2S; format: cell-based; settings: for nH: Hill coefficient
T3 construct: expressed in transfected cells; host or cells: Xenopus laevis oocytes injected with cRNA (pCMV cDNA templates)
Procedure: as §1, §2, §3, §4, §5, §6, §7

α4β2γ2S GABAA receptors = target: T4, α4β2γ2S GABAA receptors (Homo sapiens, UniProt P47870+P48169); test: Two-microelectrode voltage clamp, IGABA modulation, α4β2γ2S; format: cell-based; settings: for nH: Hill coefficient
T4 construct: expressed in transfected cells; host or cells: Xenopus laevis oocytes injected with cRNA (pCMV cDNA templates)
Procedure: as §1, §2, §3, §4, §5, §6, §7

α5β2γ2S GABAA receptors = target: T5, α5β2γ2S GABAA receptors (Homo sapiens, UniProt P31644+P47870); test: Two-microelectrode voltage clamp, IGABA modulation, α5β2γ2S; format: cell-based; settings: for nH: Hill coefficient
T5 construct: expressed in transfected cells; host or cells: Xenopus laevis oocytes injected with cRNA (pCMV cDNA templates)
Procedure: as §1, §2, §3, §4, §5, §6, §7

TRPV1 = target: T6, TRPV1 (Homo sapiens, UniProt Q8NER1); test: TRPV1 activation in Xenopus oocytes; format: cell-based; settings: 100 μM, data not shown
T6 construct: expressed in transfected cells; host or cells: Xenopus laevis oocytes
Excerpt: (for review see ref ([47])). In order to rule out potential activation of TRPV1, selected compounds were studied in X. laevis oocytes for interaction with TRPV1 prior to in vivo characterization. […] Both compounds were further characterized concerning their anxiolytic activity (see also ref ([34])).

male C57BL/6N mice [1] = test: Elevated plus maze test; format: in vivo; settings: for time spent in open arms (OA) as percentage of total time: 30 min after application, EPM; for effect in the EPM test: ip, 30 min before test
Procedure: (§8) Male mice (C57BL/6N) were obtained from Charles River Laboratories (Sulzfeld, Germany). For maintenance, mice were group-housed (maximum five mice per type IIL cage) with free access to food and water. At least 24 h before the commencement of experiments, mice were transferred to the testing facility, where they were given free access to food and water. The temperature in the maintenance and testing facilities was 23 ± 1 °C; the humidity was 40–60%; a 12 h light–dark cycle was in operation (lights on from 07:00 to 19:00). Only male mice aged 3–6 months were tested.
(§9) Compounds were applied by intraperitoneal (ip) injection 30 min before each test. Testing solutions were prepared in a solvent composed of 0.9% NaCl solution with 10% dimethyl sulfoxide (DMSO) and 3% Tween 80. […] All doses are indicated as milligrams per kilogram of body weight of the animal.
The animals’ behavior was tested over 5 min on an elevated plus maze 1 m above ground consisting of two closed and two open arms, each 50 × 5 cm in size. The test instrument was built from gray PVC; the height of closed arm walls was 20 cm. Illumination was set to 180 Lux. Animals were placed in the center, facing an open arm. Analysis of open and closed arm entries and time on open arm was automatically done with Video-Mot 2 equipment and software (TSE Systems, Bad Homburg, Germany).[34]

male C57BL/6N mice [2] = test: Open field test; format: in vivo; settings: ip, total ambulation
Procedure: as §8, §9
Ambulation was tested over 10 min in a 50 × 50 cm flexfield box equipped with infrared rearing detection. Illumination was set to 150 Lux. The animals’ explorative behavior was analyzed by use of the ActiMot 2 equipment and software (TSE-systems, Bad Homburg, Germany). Arenas were subdivided into border (up to 8 cm from wall), center (20 × 20 cm, 16% of total area), and intermediate area according to the recommendations of EMPRESS (European Mouse Phenotyping Resource of Standardised Screens; http://empress.har.mrc.ac.uk).

T3 sequence (P34903 29-492): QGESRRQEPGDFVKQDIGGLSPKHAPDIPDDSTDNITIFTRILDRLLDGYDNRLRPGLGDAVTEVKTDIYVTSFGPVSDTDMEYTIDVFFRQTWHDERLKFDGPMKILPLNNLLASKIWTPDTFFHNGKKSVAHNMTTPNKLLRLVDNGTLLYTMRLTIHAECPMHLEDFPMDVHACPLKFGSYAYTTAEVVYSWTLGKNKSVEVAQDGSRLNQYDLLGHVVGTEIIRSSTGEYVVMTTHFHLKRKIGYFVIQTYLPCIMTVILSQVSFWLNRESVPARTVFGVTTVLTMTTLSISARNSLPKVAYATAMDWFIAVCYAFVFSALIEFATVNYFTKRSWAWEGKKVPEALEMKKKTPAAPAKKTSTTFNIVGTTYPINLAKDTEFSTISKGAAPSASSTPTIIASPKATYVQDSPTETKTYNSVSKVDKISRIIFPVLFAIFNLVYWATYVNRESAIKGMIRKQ
T3 sequence (P47870 26-512): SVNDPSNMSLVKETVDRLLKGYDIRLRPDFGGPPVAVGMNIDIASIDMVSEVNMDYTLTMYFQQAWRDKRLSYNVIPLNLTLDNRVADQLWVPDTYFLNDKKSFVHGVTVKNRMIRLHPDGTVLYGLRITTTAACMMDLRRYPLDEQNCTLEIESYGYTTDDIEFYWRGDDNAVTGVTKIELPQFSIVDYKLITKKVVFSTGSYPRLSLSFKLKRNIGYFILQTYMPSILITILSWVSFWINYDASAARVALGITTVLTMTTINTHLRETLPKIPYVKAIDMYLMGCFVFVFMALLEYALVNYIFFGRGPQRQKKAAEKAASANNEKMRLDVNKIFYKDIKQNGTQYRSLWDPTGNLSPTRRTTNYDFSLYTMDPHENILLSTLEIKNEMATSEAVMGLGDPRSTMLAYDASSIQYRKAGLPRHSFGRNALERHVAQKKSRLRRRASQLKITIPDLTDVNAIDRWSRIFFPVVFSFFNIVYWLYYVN
T3 sequence (P18507 40-467 isoform P18507-1 partner limits assumed): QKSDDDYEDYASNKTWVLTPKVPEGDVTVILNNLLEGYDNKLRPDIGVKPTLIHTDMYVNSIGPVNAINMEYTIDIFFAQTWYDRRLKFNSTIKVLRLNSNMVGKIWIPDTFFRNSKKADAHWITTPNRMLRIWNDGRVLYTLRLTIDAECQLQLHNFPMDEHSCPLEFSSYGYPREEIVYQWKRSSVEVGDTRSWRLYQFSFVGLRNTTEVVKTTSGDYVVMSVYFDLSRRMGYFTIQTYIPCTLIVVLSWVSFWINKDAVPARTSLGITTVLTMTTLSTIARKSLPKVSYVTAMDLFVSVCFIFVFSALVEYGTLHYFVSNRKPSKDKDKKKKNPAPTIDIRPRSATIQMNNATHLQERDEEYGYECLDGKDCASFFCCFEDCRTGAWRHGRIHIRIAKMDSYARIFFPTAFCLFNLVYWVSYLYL
T5 sequence (P31644 32-462): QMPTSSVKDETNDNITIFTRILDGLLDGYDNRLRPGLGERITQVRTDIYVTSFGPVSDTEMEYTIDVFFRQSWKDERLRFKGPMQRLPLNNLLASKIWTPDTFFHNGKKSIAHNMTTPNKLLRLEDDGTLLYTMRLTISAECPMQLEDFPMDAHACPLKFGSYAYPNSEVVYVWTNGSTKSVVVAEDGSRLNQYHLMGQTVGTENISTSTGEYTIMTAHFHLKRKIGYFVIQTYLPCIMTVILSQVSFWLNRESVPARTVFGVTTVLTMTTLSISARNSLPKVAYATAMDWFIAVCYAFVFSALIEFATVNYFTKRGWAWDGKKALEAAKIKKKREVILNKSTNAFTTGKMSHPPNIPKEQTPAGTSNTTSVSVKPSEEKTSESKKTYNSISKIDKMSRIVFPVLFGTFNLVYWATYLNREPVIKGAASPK
T5 sequence (P47870 26-512): as the sequence (P47870 26-512) above
T5 sequence (P18507 40-467 isoform P18507-1 partner limits assumed): as the sequence (P18507 40-467 isoform P18507-1 partner limits assumed) above
T4 sequence (P48169 36-554): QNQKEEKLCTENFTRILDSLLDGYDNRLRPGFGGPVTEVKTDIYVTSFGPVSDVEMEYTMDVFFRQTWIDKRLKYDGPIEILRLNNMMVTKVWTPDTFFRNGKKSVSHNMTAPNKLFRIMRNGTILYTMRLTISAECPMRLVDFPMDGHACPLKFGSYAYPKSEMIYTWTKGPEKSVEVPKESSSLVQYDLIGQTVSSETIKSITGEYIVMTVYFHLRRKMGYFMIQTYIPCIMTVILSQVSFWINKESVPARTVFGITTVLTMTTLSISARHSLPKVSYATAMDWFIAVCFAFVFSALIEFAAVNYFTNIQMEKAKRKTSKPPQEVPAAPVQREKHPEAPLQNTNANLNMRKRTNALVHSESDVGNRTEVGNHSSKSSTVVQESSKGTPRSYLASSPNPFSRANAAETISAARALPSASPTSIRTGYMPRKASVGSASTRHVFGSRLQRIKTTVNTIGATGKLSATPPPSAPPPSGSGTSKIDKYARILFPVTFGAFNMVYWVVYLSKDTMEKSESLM
T4 sequence (P47870 26-512): as the sequence (P47870 26-512) above
T4 sequence (P18507 40-467 isoform P18507-1 partner limits assumed): as the sequence (P18507 40-467 isoform P18507-1 partner limits assumed) above
T2 sequence (P47869 29-451): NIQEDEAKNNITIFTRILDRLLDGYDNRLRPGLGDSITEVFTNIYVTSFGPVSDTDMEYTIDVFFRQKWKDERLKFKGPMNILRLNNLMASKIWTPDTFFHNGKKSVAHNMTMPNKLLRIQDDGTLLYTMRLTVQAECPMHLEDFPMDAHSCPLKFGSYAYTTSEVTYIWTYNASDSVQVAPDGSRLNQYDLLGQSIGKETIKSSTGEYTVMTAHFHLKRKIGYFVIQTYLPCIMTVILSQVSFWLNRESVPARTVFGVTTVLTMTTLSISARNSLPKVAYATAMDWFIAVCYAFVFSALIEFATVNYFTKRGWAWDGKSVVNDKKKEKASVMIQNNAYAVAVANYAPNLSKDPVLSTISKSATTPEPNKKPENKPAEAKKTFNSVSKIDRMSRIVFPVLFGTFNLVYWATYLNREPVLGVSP
T2 sequence (P47870 26-512): as the sequence (P47870 26-512) above
T2 sequence (P18507 40-467 isoform P18507-1 partner limits assumed): as the sequence (P18507 40-467 isoform P18507-1 partner limits assumed) above
T1 sequence (P14867 28-456): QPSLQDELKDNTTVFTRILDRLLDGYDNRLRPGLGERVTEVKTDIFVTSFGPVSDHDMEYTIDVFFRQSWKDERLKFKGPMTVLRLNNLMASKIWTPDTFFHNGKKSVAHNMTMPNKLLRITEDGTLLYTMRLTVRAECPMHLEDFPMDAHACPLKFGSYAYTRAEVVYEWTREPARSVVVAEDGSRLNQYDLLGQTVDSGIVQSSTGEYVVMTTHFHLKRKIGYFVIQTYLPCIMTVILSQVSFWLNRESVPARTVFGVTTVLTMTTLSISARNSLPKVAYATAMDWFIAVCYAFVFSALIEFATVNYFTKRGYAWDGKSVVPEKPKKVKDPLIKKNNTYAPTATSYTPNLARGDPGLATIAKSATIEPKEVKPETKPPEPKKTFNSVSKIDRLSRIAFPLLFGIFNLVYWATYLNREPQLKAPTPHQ
T1 sequence (P18505 26-474): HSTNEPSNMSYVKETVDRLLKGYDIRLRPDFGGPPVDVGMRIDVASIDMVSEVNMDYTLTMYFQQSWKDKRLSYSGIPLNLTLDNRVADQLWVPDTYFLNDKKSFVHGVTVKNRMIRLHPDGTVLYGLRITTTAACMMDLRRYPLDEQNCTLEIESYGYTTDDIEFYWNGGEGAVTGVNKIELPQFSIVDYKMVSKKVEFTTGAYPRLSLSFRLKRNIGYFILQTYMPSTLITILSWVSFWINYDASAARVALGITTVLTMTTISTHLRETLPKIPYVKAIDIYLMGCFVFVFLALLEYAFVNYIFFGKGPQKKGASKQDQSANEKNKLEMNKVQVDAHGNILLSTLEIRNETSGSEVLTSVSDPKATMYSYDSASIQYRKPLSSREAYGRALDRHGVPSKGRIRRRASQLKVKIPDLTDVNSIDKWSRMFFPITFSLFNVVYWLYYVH
T1 sequence (P18507 40-467 isoform P18507-1 partner limits assumed): as the sequence (P18507 40-467 isoform P18507-1 partner limits assumed) above
T6 sequence (Q8NER1 whole entry, species assumed): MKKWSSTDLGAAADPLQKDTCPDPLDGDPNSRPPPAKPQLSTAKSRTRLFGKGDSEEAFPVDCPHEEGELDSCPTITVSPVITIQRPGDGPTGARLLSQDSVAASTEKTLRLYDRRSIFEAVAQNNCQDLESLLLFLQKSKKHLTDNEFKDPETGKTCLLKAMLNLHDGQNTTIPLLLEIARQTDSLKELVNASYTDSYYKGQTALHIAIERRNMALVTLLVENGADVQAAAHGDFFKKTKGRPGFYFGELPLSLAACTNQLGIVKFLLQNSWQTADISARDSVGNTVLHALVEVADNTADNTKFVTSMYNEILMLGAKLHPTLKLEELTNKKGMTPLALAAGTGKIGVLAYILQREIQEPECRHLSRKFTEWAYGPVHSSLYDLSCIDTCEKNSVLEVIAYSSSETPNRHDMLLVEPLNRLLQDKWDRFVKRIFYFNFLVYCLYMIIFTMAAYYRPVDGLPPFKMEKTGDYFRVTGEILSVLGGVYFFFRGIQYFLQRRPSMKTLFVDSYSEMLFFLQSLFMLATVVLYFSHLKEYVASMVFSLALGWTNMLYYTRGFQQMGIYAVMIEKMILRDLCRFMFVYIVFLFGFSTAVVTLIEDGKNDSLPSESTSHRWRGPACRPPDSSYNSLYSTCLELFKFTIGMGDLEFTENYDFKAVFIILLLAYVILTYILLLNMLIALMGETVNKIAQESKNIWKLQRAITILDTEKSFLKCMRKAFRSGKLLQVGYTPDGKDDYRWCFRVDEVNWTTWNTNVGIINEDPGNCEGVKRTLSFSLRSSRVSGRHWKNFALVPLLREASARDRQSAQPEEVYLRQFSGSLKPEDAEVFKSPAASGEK

| Structure (SMILES) | EC50 (α1β1γ2S GABAA receptors) [µM] | nH (α1β1γ2S GABAA receptors) | EC50 (α2β2γ2S GABAA receptors) [µM] | nH (α2β2γ2S GABAA receptors) | EC50 (α3β2γ2S GABAA receptors) [µM] | nH (α3β2γ2S GABAA receptors) | EC50 (α4β2γ2S GABAA receptors) [µM] | nH (α4β2γ2S GABAA receptors) | EC50 (α5β2γ2S GABAA receptors) [µM] | nH (α5β2γ2S GABAA receptors) | activation of TRPV1 (TRPV1) | time spent in open arms (OA) as percentage of total time (male C57BL/6N mice [1]; 0.3 mg/kg ip) | effect in the EPM test (male C57BL/6N mice [1]) | sedation in the OF test (male C57BL/6N mice [2]) | time spent in open arms (OA) as percentage of total time (male C57BL/6N mice [1]; 3 mg/kg ip) |
| --- | --- | --- | --- | --- | --- | --- | --- | --- | --- | --- | --- | --- | --- | --- | --- |
| CCCN(CCC)C(=O)/C=C/C=C/c1ccc2c(c1)OCO2 [Compound 23, (2E,4E)-5-(1,3-benzodioxol-5-yl)-N,N-dipropyl-2,4-pentadienamide] | 57.5 ± 7.3 | 1.8 ± 0.1 | 26.4 ± 6.6 | 1.9 ± 0.4 | 36.6 ± 7.2 | 1.9 ± 0.3 | 34.7 ± 3.8 | 1.7 ± 0.1 | 61.9 ± 10.4 | 1.4 ± 0.1 | did not activate TRPV1 | 45.6% ± 3.2% | anxiolytic effects | little sedation |  |
| CCCCN(CCCC)C(=O)/C=C/C=C/c1ccc2c(c1)OCO2 [Compound 25, (2E,4E)-5-(1,3-Benzodioxol-5-yl)-N,N-dibutyl-2,4-pentadienamide] | 15.9 ± 4.9 | 1.3 ± 0.6 | 14.8 ± 1.9 | 2.2 ± 0.3 | 16 ± 2.7 | 1.8 ± 0.1 | 56.7 ± 21 | 1.3 ± 0.3 | 17.2 ± 1.4 | 1.7 ± 0.2 | did not activate TRPV1 | 39.8% ± 4.1% | anxiolytic effects | little sedation | 43.9% ± 4.3% |
